Consider 2 molecules from paper PMC12549899 (Nature Communications, 2025).

Several values for one entry are separate records, joined by “and”; a condition that tells them apart may be missing. Equal entries are not always repeated. Some results are limits rather than exact numbers.

The target of the assay is T1, DrOTOP1 G130W (Danio rerio, UniProt Q7ZWK8, G130W).
T1 construct: A previously generated codon-optimized full-length DrOTOP1[8]; (UniProt: Q7ZWK8) construct; expressed in transfected cells; host or cells: HEK-293 (CRL-1573, ATCC)
T1 sequence (Q7ZWK8 1-586 G130W): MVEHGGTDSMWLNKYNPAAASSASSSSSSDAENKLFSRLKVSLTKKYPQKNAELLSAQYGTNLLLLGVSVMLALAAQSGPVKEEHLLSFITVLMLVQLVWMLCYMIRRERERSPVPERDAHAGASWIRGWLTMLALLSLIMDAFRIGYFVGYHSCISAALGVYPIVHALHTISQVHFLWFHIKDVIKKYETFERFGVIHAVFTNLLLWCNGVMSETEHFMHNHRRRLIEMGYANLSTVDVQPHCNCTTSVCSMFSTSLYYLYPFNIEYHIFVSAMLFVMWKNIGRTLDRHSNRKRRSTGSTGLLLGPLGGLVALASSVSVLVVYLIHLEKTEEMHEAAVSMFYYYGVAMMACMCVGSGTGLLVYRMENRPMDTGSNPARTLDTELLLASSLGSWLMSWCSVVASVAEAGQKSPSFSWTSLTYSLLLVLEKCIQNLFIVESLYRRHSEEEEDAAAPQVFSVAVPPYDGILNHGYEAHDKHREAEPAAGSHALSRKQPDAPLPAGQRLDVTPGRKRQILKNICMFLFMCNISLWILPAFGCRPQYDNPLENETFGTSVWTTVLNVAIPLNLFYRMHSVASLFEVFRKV
The experiment in a line: Whole-cell patch-clamp, inhibition of acid-evoked currents, DrOTOP1 G130W (outer site). The assay is classed as cell-based, zebrafish (Danio rerio). From the text: To functionally test the significance of the two binding sites identified by cryo-EM, we generated point mutations of DrOTOP1 using the binding poses and conformational changes observed in DrOTOP1_C2.2 to guide our mutations. As per the binding pose that best fits our cryo-EM density, C2.2 forms the following interactions in the outer site: hydrophobic packing against many non-polar residues W126, G130, M133, L134, F271, F570, and M573, and π-stacking with W532 (Fig. 5A). In addition, C2.2 could potentially form H-bonds with E267, if the sidechain is protonated or a water bridge is present, and with H574 if it moves closer (Fig. 5A). Likewise, C2.36 presents a heterocyclic nitrogen that can potentially form a H-bond with E267, similarly, provided a protonation or water bridge is present (Fig. 5B). In addition, C2.36 forms a T-shaped π-stacking interaction with H574, whose sidechain has rotated 90 degrees (compared to DrOTOP1_apo), presumably to accommodate the interaction (Fig. 5B). Considering other inhibitors discovered from the second round of screening, many contain functional groups like the carbonyl groups of Group 1 molecules and the heterocyclic nitrogen atoms of Group 2 molecules (Supplementary Fig. 3E), that can potentially form similar H-bonds with E267 as C2.2 and C2.36, assuming the binding modes are similar. In the central site, C2.2 binds with the following interactions: hydrophobic packing with residues V201, F271, A274, V278, and A388, π-stacking with F277, and H-bonding with E384 (Fig. 5C).
Each non-aromatic residue was mutated to tryptophan, which was expected to cause steric occlusion. […] This seemed appropriate given the small number of H-bonds in these pockets, the ambiguity of how the inhibitors fit the density, and the prevalence of hydrophobic packing interactions (Fig. 5A–C).
HEK-293 cells (CRL-1573, ATCC) were cultured in DMEM (Thermofisher 11995073) containing 10% fetal bovine serum (Life Technology 16000044) and Penicillin-Streptomycin (100 I.U./mL) and (100 µg/mL), respectively. Cells were transfected with WT DrOTOP1 or mutant DrOTOP1 channels in 35 mm petri dishes, with ~ 500 ng DNA and 2 μL TransIT-LT1 transfection reagent (Mirus Bio Corporation, Cat # MIR2300) following the manufacturer’s protocol. All constructs were subcloned into a pcDNA3.1 vector that adds an N-terminal fusion tag consisting of an octahistidine tag followed by eGFP, a Gly-Thr-Gly-Thr linker and a 3C protease cleavage site ([…]) followed by WT DrOTOP1, WT mOTOP1, WT hOTOP1, or mutated DrOTOP1. Point mutations were generated via In-Fusion Cloning (Takara) using single-stranded DNA primers generated through IDT and sequence confirmed by Sanger sequencing (GeneWiz).
Whole-cell patch-clamp recording was performed as previously described[6],[22],[25]. Recordings were made with an Axopatch 200B amplifier, digitized with a Digidata 1322a 16-bit data acquisition system, acquired with pClamp 8.2 and analyzed with Clampfit 10 (Molecular Devices). Recordings were sampled at 5 kHz and filtered at 1 kHz. Patch Pipettes with resistance of […] were fabricated from borosilicate glass, and only recordings with a giga-Ohm seal were used in analysis. Membrane potential was held at −80 mV for the duration of recordings. At the beginning of recordings and between, cells were washed with Tyrode’s solution (see below). Once a giga-Ohm seal was reached, cells were lifted and placed in front of microcapillary tubes controlled by a Fast-Step perfusion system (Warner Instruments) so that extracellular solutions could be rapidly exchanged during each experiment.
Standard Tyrode’s solution consisted of 145 mM NaCl, 5 mM KCl, MgCl2, 2 mM CaCl2, 20 mM D-Glucose, and 10 mM HEPES (for pH 7.4). All other extracellular patch-clamp solutions contained 160 mM NMDG-Cl, 2 mM CaCl2, and the following buffers: 10 mM HEPES (for pH 7.4), 10 mM MES (for pH 6.5-5.5), 10 mM CHES for pH 10, and 10 mM HomoPIPES for (pH 5.0). pH adjusted with HCl. […]
A general note: In patch-clamp work, channel activity is measured electrically.

One may read the inhibition as the change of the read-out against control, counted positive when it falls. The term Hill coefficient denotes the slope factor of the fitted curve. What is called IC50 is the point on the concentration scale where inhibition reaches its midpoint. A low value points to inhibition by little substance. Under “30 µM, DrOTOP1 G130W, single cells”, `C=C(C)COc1ccccc1NC(=O)c1nc[nH]c1C` [C2.2] returned an inhibition at 30 µM of 15.3%. The inhibition at 100 µM (DrOTOP1 G130W, single cells) was 42.4%. Where the note is “DrOTOP1 G130W”, this molecule had a Hill coefficient of 1.123. For the same molecule, for the setting “DrOTOP1 G130W, pH 5.5”, the IC50 is 130 µM and 138 µM. The “Mean, Fig 5N” value (G130W + C2.2, n=5) came out at 15.24. Moreover, the “Disruption of inhibitory activity by site-directed mutagenesis of outer site residues” value (outer site mutants compared with WT) is ≤ 20 fold.
In the case of `O=C(/C(=N\O)c1ccccc1)c1ccccc1` [C11, benzil monoxime], for the setting “DrOTOP1 G130W, single cells”, testing at 100 µM gave an inhibition of 62.7%.
